Values quoted from earlier work in PubChem BioAssay AID1259410 (Chemical Carcinogenesis Research Information System (CCRIS), 2018).

Test system: rodent tumor promotion studies, tumor incidence
Assay: CCRIS tumor promotion studies
[1] = Carcinogen: 7,12-DIMETHYLBENZ(A)ANTHRACENE, Doses [Carcinogen]: TOP, Route [Carcinogen]: DERMAL, Route [Promoter]: DERMAL, Species: MOUSE, Strain/Sex: FEMALE

SMILES: O=C([O-])[C@H](O)[C@@H](O)[C@H](O)[C@H](O)CO.O=C([O-])[C@H](O)[C@@H](O)[C@H](O)[C@H](O)CO.[Cu+2]
- outcome (Carcinogen: N-nitrosodiethylamine (DEN) (55-18-5), N-methylnitrosourea (MNU) (684-93-5), 1,2-dimethylhydrazine (DMH) (540-73-8), N-b, Carcinogen: N-nitrosodiethylamine (DEN) (55-18-5), N-methylnitrosourea (MNU) (684-93-5), 1,2-dimethylhydrazine (DMH) (540-73-8), N-b, Doses [Carcinogen]: DEN (100 mg/kg at commencement), MNU (4 injections of 20 mg/kg in first 2 wks), DMH (4 injections of 40 mg/kg in second, Doses [Carcinogen]: DEN (100 mg/kg at commencement), MNU (4 injections of 20 mg/kg in first 2 wks), DMH (4 injections of 40 mg/kg in second, Doses [Promoter]: 0, 10, 300, 3000, 6000 ppm in diet immediately after completion of initiator treatment for 25 wk, Doses [Promoter]: 0, 10, 300, 3000, 6000 ppm in diet immediately after completion of initiator treatment for 25 wk, Route [Carcinogen]: Intraperitoneal (DEN and MNU), subcutaneous (DMH), oral (BBN and DHPN), Route [Carcinogen]: Intraperitoneal (DEN and MNU), subcutaneous (DMH), oral (BBN and DHPN), Route [Promoter]: Oral, Species: Rat, Strain/Sex: BrlHan:WIST Jcl (GALAS)/Male (9-12/group)): liver: gst-p-positive lesions (p<0.05 at 300 and 3000 ppm and p<0.01 at 6000 ppm

SMILES: Cc1ccc(O)c(O)c1
- outcome (Carcinogen: N-METHYL-N'-NITRO-N-NITROSOGUANIDINE, 70-25-7, Doses [Carcinogen]: 150 MG/KG IN DMSO ONCE, Doses [Promoter]: 0, 1.5% IN DIET FOR 51 WK BEGINNING 1 WK AFTER CARCINOGEN DOSE (STUDY DURATION: 52 WK), Route [Carcinogen]: GAVAGE, Route [Promoter]: ORAL, Species: RAT, Strain/Sex: F344/MALE): forestomach: squamous cell carcinoma; glandular stomach: adenocarcinoma

SMILES: CC(=O)Nc1ccc2c(c1)C(O)c1ccccc1-2 (stereo not given)
- outcome (Carcinogen: DIETHYLNITROSAMINE, 55-18-5, Doses [Carcinogen]: 200 MG/KG BW IN 0.9% SALINE ONCE, Doses [Promoter]: 0, 0.1 MMOL/KG BW IN POLYETHYLENE GLYCOL FOR 5 D BEGINNING 1 WK POST CARCINOGEN DOSE, 70% HEPATECTOMY PERFORMED 3 D AFTE, Route [Carcinogen]: INTRAPERITONEAL, Route [Promoter]: GAVAGE, Species: RAT, Strain/Sex: SPRAGUE-DAWLEY/MALE): liver: hepatocellular carcinoma

SMILES: CCOc1ccc2c(c1)C(C)=CC(C)(C)N2
- outcome (Carcinogen: 1,2-DIMETHYLHYDRAZINE, 540-73-8, Doses [Carcinogen]: 20 MG/KG 1/WK FOR 4 WK, Doses [Promoter]: 0, 0.8% IN DIET FOR 36 WK (STUDY DURATION: 40 WK), Route [Carcinogen]: SUBCUTANEOUS, Route [Promoter]: ORAL, Species: RAT, Strain/Sex: F344/MALE): colon: tumor
- outcome (Carcinogen: N-BUTYL-N-(4-HYDROXYBUTYL)NITROSAMINE, 3817-11-6, Doses [Carcinogen]: 0.05% IN DRINKING WATER FOR 4 WK, Doses [Promoter]: 0, 0.8% IN DIET FOR 32 WK (STUDY DURATION: 36 WK), Route [Carcinogen]: ORAL, Route [Promoter]: ORAL, Species: RAT, Strain/Sex: F344/MALE): urinary bladder: papilloma, carcinoma
- outcome (Carcinogen: N-BUTYL-N-(4-HYDROXYBUTYL)NITROSAMINE, 3817-11-6, Doses [Carcinogen]: 0.05% IN DRINKING WATER FOR 4 WK, Doses [Promoter]: 0, 0.8% IN DIET FOR 32 WK BEGINNING POST CARCINOGEN (STUDY DURATION: 36 WK), Route [Carcinogen]: ORAL, Route [Promoter]: ORAL, Species: RAT, Strain/Sex: F344/MALE): bladder: papilloma
- outcome (Carcinogen: N-ETHYL-N-(HYDROXYETHYL)NITROSAMINE, 13147-25-6, Doses [Carcinogen]: 0.1% IN DRINKING WATER FOR 2 WK, Doses [Promoter]: 0, 0.8% IN DIET FOR 29 WK (STUDY DURATION: 31 WK), Route [Carcinogen]: ORAL, Route [Promoter]: ORAL, Species: RAT, Strain/Sex: F344/MALE): kidney: adenoma

SMILES: C[C@]12CC[C@H](O)CC1=CC[C@@H]1[C@@H]2CC[C@]2(C)C(=O)CC[C@@H]12
- outcome (Carcinogen: N-METHYL-N'-NITRO-N-NITROSOGUANIDINE, 70-25-7, Doses [Carcinogen]: 35 PPM IN WATER FOR 30 MIN ONCE, Doses [Promoter]: 0, 111, 222, 444, 888 PPM IN DIET FOR 6 MO BEGINNING 3 MO POST CARCINOGEN TREATMENT (STUDY DURATION: 9 MO), Doses [Promoter]: 0, 111, 222, 444, 888 PPM IN DIET FOR 6 MO BEGINNING 3 MO POST CARCINOGEN TREATMENT (STUDY DURATION: 9 MO), Route [Carcinogen]: IMMERSION, Route [Promoter]: ORAL, Species: FISH, Strain/Sex: RAINBOW TROUT/MALE,FEMALE): liver: tumor
- outcome (Carcinogen: N-METHYL-N'-NITRO-N-NITROSOGUANIDINE, 70-25-7, Doses [Carcinogen]: 35 PPM IN WATER FOR 30 MIN ONCE, Doses [Promoter]: 0, 111, 888 PPM IN DIET FOR 6 MO BEGINNING 3 MO POST CARCINOGEN TREATMENT (STUDY DURATION: 9 MO), Doses [Promoter]: 0, 111, 888 PPM IN DIET FOR 6 MO BEGINNING 3 MO POST CARCINOGEN TREATMENT (STUDY DURATION: 9 MO), Route [Carcinogen]: IMMERSION, Route [Promoter]: ORAL, Species: FISH, Strain/Sex: RAINBOW TROUT/MALE,FEMALE): kidney: tumor
- outcome (Carcinogen: N-NITROSOMORPHOLINE, 59-89-2, Doses [Carcinogen]: 120 MG/L IN DRINKING WATER FOR 7 WK, Doses [Promoter]: 0, 0.6% IN THE DIET FOR DURATION OF STUDY BEGINNING 1 WK POST CARCINOGEN TREATMENT (STUDY DURATION: 84 WK), Route [Carcinogen]: ORAL, Route [Promoter]: ORAL, Species: RAT, Strain/Sex: SPRAGUE-DAWLEY/FEMALE): liver: hepatocellular carcinoma
- outcome (Carcinogen: N-NITROSOMORPHOLINE, 59-89-2, Doses [Carcinogen]: 120 MG/L IN DRINKING WATER FOR 7 WK, Doses [Promoter]: 0, 0.6% IN THE DIET FOR DURATION OF STUDY BEGINNING 1 WK POST CARCINOGEN TREATMENT (STUDY DURATION: 84 WK), Route [Carcinogen]: ORAL, Route [Promoter]: ORAL, Species: RAT, Strain/Sex: SPRAGUE-DAWLEY/MALE): liver: hepatocellular adenoma
- outcome (Doses [Carcinogen]: 10 PPB IN WATER FOR 30 MIN, Doses [Promoter]: 0, 444 PPM IN DIET FOR 6 MO BEGINNING 3 MO POST CARCINOGEN TREATMENT (STUDY DURATION: 9 MO), Route [Carcinogen]: IMMERSION, Route [Promoter]: ORAL, Species: FISH, Strain/Sex: RAINBOW TROUT/MALE, FEMALE): liver: tumor
- outcome (Doses [Carcinogen]: 10 PPB IN WATER, Doses [Promoter]: 0, 222, 444, 888 PPM IN DIET 1/D 5 D/WK FOR 30 WK BEGINNING 16 WK POST CARCINOGEN TREATMENT (STUDY DURATION: 46 WK), Doses [Promoter]: 0, 222, 444, 888 PPM IN DIET 1/D 5 D/WK FOR 30 WK BEGINNING 16 WK POST CARCINOGEN TREATMENT (STUDY DURATION: 46 WK), Route [Carcinogen]: IMMERSION, Route [Promoter]: ORAL, Species: FISH, Strain/Sex: RAINBOW TROUT/MALE, FEMALE): liver: tumor

SMILES: CC1=C[C@H]2[C@@]3(O)[C@H](C)[C@@H](O)[C@]4(O)[C@H]([C@@H]3C=C(CO)C[C@]2(O)C1=O)C4(C)C
- outcome (Carcinogen: 2-(ACETYLAMINO)FLUORINE, Doses [Carcinogen]: TRANS-PLACENTAL, Route [Carcinogen]: TRANS-PLACENTAL, Route [Promoter]: INTRAPERITONEAL, Species: MOUSE, Strain/Sex: C57BL/MALE,FEMALE): liver
- outcome (Carcinogen: 7,12-DIMETHYLBENZ(A)ANTHRACENE, Doses [Carcinogen]: IG, Route [Carcinogen]: GAVAGE, Route [Promoter]: INTRAPERITONEAL, Species: RAT, Strain/Sex: FEMALE): mammary glands; hematopoietic system (leukemia, thymic)
- outcome (Carcinogen: 7,12-DIMETHYLBENZ(A)ANTHRACENE, Doses [Carcinogen]: TOP, Route [Carcinogen]: DERMAL, Route [Promoter]: INTRAPERITONEAL, Species: MOUSE, Strain/Sex: FEMALE): hematopoietic system (leukemia, nonthymic)
- outcome (Carcinogen: DIMETHYLNITROSAMINE, Doses [Carcinogen]: SC, Route [Carcinogen]: SUBCUTANEOUS, Route [Promoter]: INTRAPERITONEAL, Species: MOUSE, Strain/Sex: MALE,FEMALE): lung; liver

SMILES: CCCCCCCCCCCCCC
- outcome [1]: integumentary system (skin)
- outcome (Carcinogen: BENZO(A)PYRENE, Doses [Carcinogen]: TOP, Route [Carcinogen]: DERMAL, Route [Promoter]: DERMAL, Species: MOUSE, Strain/Sex: FEMALE): integumentary system (skin)

SMILES: Oc1ccccc1-c1ccccc1
- outcome (Carcinogen: 7,12-DIMETHYLBENZ[A]ANTHRACENE, 57-97-6, Doses [Carcinogen]: 10 UG 2/WK FOR 5 WK, Doses [Promoter]: 0, 5 MG 2/WK FOR 47 WK BEGINNING 1 WK AFTER LAST CARCINOGEN DOSE (STUDY DURATION: 53 WK), Route [Carcinogen]: DERMAL, Route [Promoter]: DERMAL, Species: MOUSE, Strain/Sex: CD-1/FEMALE): skin: papilloma, carcinoma
- outcome (Carcinogen: N-BUTYL-N-4(HYDROXYBUTYL)NITROSAMINE, 3817-11-6, Doses [Carcinogen]: 0.05% IN DRINKING WATER FOR 2 WK, Doses [Promoter]: 0, 2% IN DIET STARTING POST CARCINOGEN AND CONTINUING FOR 22 WK, LEFT URETER LIGATED 8 D POST CARCINOGEN (STUDY DURATION, Route [Carcinogen]: ORAL, Route [Promoter]: ORAL, Species: RAT, Strain/Sex: F344/MALE): bladder: papilloma
- outcome (Carcinogen: N-BUTYL-N-(4-HYDROXYBUTYL)NITROSAMINE, Doses [Carcinogen]: 0.05% IN DRINKING WATER FOR 4 WK, Doses [Promoter]: 2.0% IN DIET FOR 32 WK AFTER INITIATION, Route [Carcinogen]: ORAL, Route [Promoter]: ORAL, Species: RAT, Strain/Sex: F344/MALE): urinary bladder: transitional cell carcinoma

SMILES: Cc1cc(C)cc(O)c1
- outcome [1]: integumentary system (skin)

SMILES: Oc1ccc(Cl)cc1
- outcome [1]: integumentary system (skin)

SMILES: CCCC1(CCCCCCCCCCCC(=O)OC2C(C)C3(O)C(C=C(CO)CC4(O)C(=O)C(C)=CC43)C3C(C)(C)C23OC(C)=O)OCC(C)(C)N1[O] (stereo not given)
- outcome (Carcinogen: 7,12-DIMETHYLBENZ[A]ANTHRACENE, 57-97-6, Doses [Carcinogen]: 100 NMOL ONCE, Doses [Promoter]: 0, 20 NMOL 2/WK FOR 24 WK BEGINNING 1 WK POST CARCINOGEN DOSE (STUDY DURATION: 25 WK), Route [Carcinogen]: DERMAL, Route [Promoter]: DERMAL, Species: MOUSE, Strain/Sex: NMRI/FEMALE): skin: tumor
